Measured values as given in US12209078B2, “Crystalline forms of carbazole inhibitors of RhoGTPase for the treatment of disease” (MBQ Pharma, priority 2021, dated 2025).

Assays:
[1] = Thermogravimetric analysis (TGA); type: physicochemical; conditions: heating to 400° C. under N2 at 5.0° C./min
Experimental: Thermogravimetric Analysis (TGA) Thermographs were recorded in a Thermogravimetric Analyzer (TGA) from TA Instruments Inc. (Q500) calibrated with calcium oxalate monohydrate (CaC2O4·H2O) standard to determine if MBQ-167 degrades before melting. Between 1.000-2.000 mg of the crystalline sample were equilibrated at 25° C. for 5 min before heating to 400° C. under N2 atmosphere (60 mL/min) at a rate of 5.0° C./min and a temperature accuracy of 0.1° C. Data was analyzed with the TA Universal Analysis 2000 software (version 4.5A).
Decomposition of the Form I polymorph (a) begins at about 184.7° C., while onset for decomposition of the Form II polymorph (b) begins at about 193.0° C.

[2] = Differential scanning calorimetry (DSC); type: physicochemical; conditions: heating 5.0° C./min under N2
Experimental: Differential Scanning calorimetry (DSC) DSC was performed to determine the melting temperature (Tm) and enthalpy of fusion (ΔfusH) of MBQ-167. A differential scanning calorimeter (DSC) from TA Instruments Inc. (Q2000) equipped with a RCS40 single-stage refrigeration system was employed to carry out these measurements. The calibration of the DSC was conducted with an indium standard (Tm=156.6° C. and ΔfusH=28.54 J/g). Between 1.000-3.000 mg of the crystalline sample was weighed using a XP26 microbalance from Mettler Toledo (±0.002 mg) and placed on Tzero aluminum pans that were hermetically sealed. Samples were equilibrated at 25° C. for 5 min before heating to 250° C. at a rate of 5.0° C./min and then was cooled to 25° C. at a heating rate of 10° C./min under a N2 atmosphere (50 mL/min) and a temperature accuracy of 0.1° C.
A first endothermic peak, with an onset of 128.22° C. and centered at 129.82° C., corresponding to 0.4504 W/g, is followed by a second endothermic peak, with an onset of 152.81° C. and centered at 153.64° C., corresponding to 0.5809 W/g.
Overlay of the two DSC thermographs, shown in FIG. 3, makes apparent the source of the behavior of the Form II polymorph. The Form I polymorph undergoes a single endothermic phase transition to the melt. […]

Row | onset of decomposition (TGA) [1] | centre of first endothermic peak (phase transition to the more stable Form I polymorph) [2] [°C] | onset of first endothermic peak (phase transition to the more stable Form I polymorph) [2] [°C] | SMILES | decomposition relative to melting (TGA) [1]
1 | about 184.7 °C | – | – | CCn1c2ccccc2c2cc(-n3nncc3-c3ccccc3)ccc21 [Form I polymorph, 9-Ethyl-3-(5-phenyl-1H-1,2,3-triazol-1-yl)-9H-carbazole] | –
2 | about 193.0 °C | 129.82 | 128.22 | CCn1c2ccccc2c2cc(-n3nncc3-c3ccccc3)ccc21 [Form II polymorph, 9-Ethyl-3-(5-phenyl-1H-1,2,3-triazol-1-yl)-9H-carbazole] | –
3 | – | – | – | CCn1c2ccccc2c2cc(-n3nncc3-c3ccccc3)ccc21 [MBQ-167, 9-ethyl-3-(5-phenyl-1H-1,2,3-triazol-1-yl)-9H-carbazole] | starts to decompose after the melting temperature
